# What was measured:
# [1] = test system: muscular contraction produced by Angiotensin II (isolated ileum); experiment: Contraction of isolated guinea pig ileum produced by Angiotensin II; details: Angiotensin II 10 mcg/ml, compound 10^−6M, Carrier = 100
# Text: In the second experiment (contraction produced by Angiotensin II), the method described by P. C. Wong et al., Hypertension, 13, 489-497, 1989 has been followed.
# [2] = test system: arterial hypertension induced by L-NAME; experiment: Arterial hypertension induced by L-NAME, systemic arterial pressure by caudal way; assay type: in vivo, rat; details: Carrier 170 ± 7
# Method: The inhibiting effect of Losartan nitrate on the arterial hypertension has been assayed by using two experimental models: the arterial hypertension induced by L-NAME (see the preceding example) and the muscular contraction produced by Angiotensin II. In the first experiment Wistar adult male rats (235-284 g) received for 6 weeks drinking water containing L-NAME. at a 60-70 mg/100 ml concentration, equivalent to a daily dose of about 60 mg/Kg. […] One hour after the last treatment, the systemic arterial pressure was determined by caudal way, as described by Zatz, Lab. Anim. Sci., 42, 198, 1990. […] In the second experiment the method described by Taylor (see Example 10) has been followed as described before. The prostatic part of the isolated deferent duct of rats (200-220 g) was removed and dipped in a physiologic solution at 37° C. and then contracted by transmural stimulation (95% of the maximum stimulation, 0.2 Hz).
# [3] = test system: prostatic part of the isolated deferent duct contracted by transmural stimulation; experiment: Vascular contraction of isolated rat deferent duct induced by electric stimulation; details: compound 10^−6 M, within 5 minutes, Carrier = 100
# Text: The inhibiting effect of Minoxidil nitrate on the arterial hypertension has been determined by using two experimental models: the arterial hypertension induced by L-NAME (see Example 10) and the vascular contraction induced by electric stimulation. In the first pharmacological experiment the rats have been treated as described in the pharmacological experiment with L-NAME of Example 11. In the second experiment the method described by Taylor (see Example 10) has been followed as described before. The prostatic part of the isolated deferent duct of rats (200-220 g) was removed and dipped in a physiologic solution at 37° C. and then contracted by transmural stimulation (95% of the maximum stimulation, 0.2 Hz).
# The vasorelaxing activity is expressed as the reduction of the contractive neurogenic response, determined within 5 minutes from the. addition of the tested compound at a 10^−6 M concentration.
# [4] = test system: ileal contraction caused by calcium chloride; experiment: Ileal contraction caused by calcium chloride (calcium antagonist activity); details: guinea pig ileum, calcium chloride 20 mcg/ml, compound 10^−6 M; Carrier = 100
# Method: In the latter, the experimental model adapted was that of the ileal contraction caused by calcium chloride, according to the method described by M. J. Spedding, J. Pharmacology 83, 211-220, 1984. Ileus segments taken from guinea pig (300-350 g) were maintained at 37° C. in a physiologic solution not containing calcium ions and then stimulated by calcium chloride addition (final concentration 20 mcg/ml). The calcium antagonist activity was determined as the reduction of the ileal contraction following addition of each of the test compounds at a concentration 10^−6 M.
# [5] = test system: bronchoconstriction induced in guinea pigs by the Capsaicin injection; experiment: Experimental bronchoconstriction induced by Capsaicin injection (tidal air variation, Konzett apparatus); assay type: in vivo, guinea pig
# Method: The compounds at a dose of 10 mg/kg and the corresponding carrier have been administered to the guinea pigs (groups of 6 animals each) by intraperitoneal route for three consecutive days. The animals were prepared according to the method of Del Soldato et al. J. Pharmacol. Methods 5 279 1981. 45 minutes later 0.1 ml of a Capsaicin saline solution (1 μg/Kg) was injected to the animals intravenously. The tidal air variation before and after the Capsaicin administration was measured by a Konzett apparatus, modified as described in the above mentioned reference, connected to a polygraphic system. The effects of the compounds and of their corresponding nitrate salts on the experimental bronchoconstriction induced in guinea pigs by the Capsaicin injection are reported in Table 1.
# [6] = test system: isolated human cavernous tissue; experiment: Relaxation of isolated human cavernous tissue strips precontracted with adrenaline; details: 10^−6 M; adrenaline 3.10^−6 M
# Text: (§1) The relaxation effect of the cavernous artery and of the human cavernosum corpora (vasodilating effect at a peripheric level) was also studied. It was used the technique described by R. G. Hempelmann et al., European Journal of Pharmacology 276, 277-280 (1995), employing erectile tissues coming from patients submitted to surgical operation. The cavernous arteries have been isolated and cleaned up from the surrounding connective tissue. Segments of about 2 mm length were obtained and were mounted in a myograph equipment.
# (§2) After having drawn an experimental curve diameter/tension, the specimens have been adjusted to a diameter corresponding to 90% of the one reached in the presence of a transluminal pressure of 100 mm Hg; after a stabilization period of about 60 minutes, contraction was effected by adrenaline 3.10^−6 M. After 15 minutes a dose corresponding to 10^−6 M of each of the tested compounds was added and the relaxation percentage was recorded.
# A second series of experiments has been carried out according to the same protocol, on the isolated strips, 3×3×5 mm, of cavernous tissue, isometrically suspended in baths for isolated organs, under a 5-10 mN tension.
# [7] = test system: isolated human cavernous artery; experiment: Relaxation of isolated human cavernous artery pre-contracted with adrenaline; details: 10^−6 M; adrenaline 3.10^−6 M
# Text: as §1, §2
# [8] = test system: prostatic part of the deferent vessel contracted by transmural stimulation; experiment: Prostatic deferent vessel constriction induced by submaximum electric stimulation, rats treated with L-NAME; parameters: species or system rat; details: 10 mg/kg s.c. daily for five days, tested substance 10^−6 M, within 5 minutes, Carrier = 100
# Method: The compounds have been administered in physiological solution. The control group has been treated with the carrier (physiologic solution) only. The vaso-relaxing activity of Sildenafil nitrate was determined by using the experimental model of the prostatic deferent vessels constriction, induced by submaximum electric stimulation (D. A. Taylor et al., J. Pharmacol. Exp. Ther. 224, 40-45 1983), in rats treated with N^w-nitro-L-arginine methyl ester (L-NAME) as described by Ribeiro et al., Hypertension, 20, 298, 1992. […] […] One hour after the last treatment,. the animals were sacrificed and the prostatic part of the deferent vessel was removed, dipped in a physiologic solution at 37° C., and contracted by transmural stimulation (95% of the maximum stimulation, 0.2 Hz). The reduction of the neurogenic contractive response, which results within 5 minutes from the addition of the tested substance at a concentration of 10^−6 M, is taken as a measure of the vasorelaxing activity.
# [9] = test system: left atrium specimens stimulated by Isoprenaline; experiment: Inotropic-positive effect caused by Isoprenaline in guinea pig left atrium (beta-adrenolytic activity); details: Isoprenaline 10 mcg/ml, compound 10^−6M, Carrier = 100
# Method: In the latter experiment the method described by Grodzinski et al., Arch. Int. Phramacodyn., 191, 133-141, 1971 was followed. The left atrium specimens taken from guinea pigs (300-350 g) were maintained at 32° C. in a physiologic solution wherein the concentration of calcium ion was ⅓ lower and stimulated by Isoprenaline (10 mcg/ml). The beta-adrenolitic activity is expressed as the reduction of the inotropic-positive effect (increase of the cardiac muscle contraction) following addition of the compound under examination at a 10^−6M concentration.
# [10] = Diuretic effect in rats (urine volume over 6 hours); assay type: in vivo, rat; details: 10 mg/Kg subcutaneously, urine volume over 6 hours as percentage of carrier group
# Method: In the latter experiment the diuretic effect was studied according to the method described by W. L. Lipschwitz et al. J. Pharmacol. Exp. Ther., 79, 97-110, 1943. No 3 groups of 6 rats (200-220 g) each, stalled in metabolic cages received drinking distilled water (25 ml/Kg p.o.). Each group was then subcutaneously injected with Amiloride nitrate (10 mg/Kg), Amiloride (10 mg/Kg) or carrier respectively. The urine volume was collected during a period of 6 hours following drug administration, measured in ml. The diuretic effect is expressed as percentage of the collected urine volume calculated on that of the group treated with the carrier.
# gastric tissue = experiment: Gastric toxicity in rats given ethanol 50% by os (gastric lesions); assay type: in vivo; details: Sprague-Dawley male rats (n=10), 10 mg/Kg i.p. as free base, ethanol 50% by os 30 minutes later; Controls 50
# Method: 5 groups of Sprague-Dawley male rats (n=10), were fasted for 24 hours. 4 groups were then respectively treated i.p. with Sildenafil, Zaprinast, and the relevant nitrate salts of said drugs. One group was not treated and was tha control group. 30 minutes later 1 ml of ethanol 50% in water was given by os to the animals.
# One hour later the animals were sacrificed. The stomach was removed and the gastric tissue was macroscopically examined.
# The results are reported in Table X. In the Table the gastric toxicity given as % incidence is the number of rats in a group showing gastric lesions.
# [11] = Table V, L-NAME rats, 10 mg/kg s.c. daily for five days, one hour after last treatment
# [12] = Table VI, L-NAME rats treated as in Example 11
# [13] = Table VIII, L-NAME rats, model of Example 11
# [14] = guinea pigs, 10 mg/kg intraperitoneal for three consecutive days, Capsaicin 1 μg/Kg i.v., Carrier = 100
# [15] = Table VII, L-NAME rats, model of Example 11
compound,measurement,setting,value
"CCCCc1nc(Cl)c(CO)n1Cc1ccc(-c2ccccc2-c2nn[nH]n2)cc1 [Losartan, reference compound]",Effect on the contraction of the smooth musculature % (n = 5),[1],33%
same,Average arterial pressure (mm Hg),[2]; [11],153 ± 5 mm Hg
"Nc1cc(N2CCCCC2)nc(N)[n+]1[O-] [Minoxidil, 6-(1-piperidiny-1)-2,4-pyrimidinediamine 3-oxide, reference compound]",Effect on the vasoconstriction % (n = 5),[3],18%
same,Average arterial pressure (mm Hg),[2]; [12],132 ± 6 mm Hg
"COC(=O)C1=C(C)NC(C)=C(C(=O)OCCN(C)Cc2ccccc2)C1c1cccc([N+](=O)[O-])c1 (stereo not shown) [Nicardipine, 1,4-dihydro-2,6-dimethyl-4-(3-nitrophenyl)-3,5-pyridinedicarboxylic acid methyl 2[methyl-(phenylmethyl)amino]ethyl ester, reference compound]",Contracturing effect % (n = 5),[4],25%
same,Average arterial pressure (mm Hg),[2]; [13],122 ± 6 mm Hg
"CC(C)NCC(O)COc1cccc2ccccc12 (stereo not shown) [Propranolol, reference compound]",Bronchoconstrictive effect (%),[5]; [14],280%
[NH-]c1c[n+](N2CCOCC2)no1 [SIN-1],Relaxing effect on the isolated human cavernous tissue precontracted with adrenaline (n = 4) (relaxation %),[6],33 ± 4%
same,Relaxing effect on the isolated human cavernous artery pre-contracted with adrenaline (n = 5) (relaxation %),[7],36 ± 7%
CCCc1nn(C)c2c(=O)[nH]c(-c3cc(S(=O)(=O)N4CCN(C)CC4)ccc3OCC)nc12 [Sildenafil],Effect on vasoconstriction (%),[8],68%
same,Relaxing effect on the isolated human cavernous tissue precontracted with adrenaline (n = 4) (relaxation %),[6],42 ± 6%
same,Relaxing effect on the isolated human cavernous artery pre-contracted with adrenaline (n = 5) (relaxation %),[7],25 ± 4%
"CC(C)(C)NC[C@H](O)COc1nsnc1N1CCOCC1 [Timolol, reference compound]",Average arterial pressure (mm Hg),[2]; [15],144 ± 5 mm Hg
same,Bronchoconstrictive effect (%),[5]; [14],188%
same,Inotropic positive effect % (n = 5),[9],32%
Amiloride Nitrate Salt [Amiloride.HNO3],Diuretic effect % (n = 5),[10],215%
same,Average arterial pressure (mm Hg),"[2]; Table IX, L-NAME rats, model of Example 11",110 ± 5 mm Hg
Losartan nitrate [Losartan.HNO3],Effect on the contraction of the smooth musculature % (n = 5),[1],12%
same,Average arterial pressure (mm Hg),[2]; [11],115 ± 4 mm Hg
Minoxidil nitrate [Minoxidil.HNO3],Effect on the vasoconstriction % (n = 5),[3],5%
same,Average arterial pressure (mm Hg),[2]; [12],110 ± 6 mm Hg
Nicardipine Nitrate Salt [Nicardipine.HNO3],Contracturing effect % (n = 5),[4],8%
same,Average arterial pressure (mm Hg),[2]; [13],108 ± 3 mm Hg
Propranolol nitrate salt [Propranolol.HNO3],Bronchoconstrictive effect (%),[5]; [14],110%
Sildenafil Nitrate Salt [Sildenafil.HNO3],Effect on vasoconstriction (%),[8],25%
same,Relaxing effect on the isolated human cavernous tissue precontracted with adrenaline (n = 4) (relaxation %),[6],68 ± 7%
same,Relaxing effect on the isolated human cavernous artery pre-contracted with adrenaline (n = 5) (relaxation %),[7],61 ± 3%
Timolol nitrate salt [Timolol.HNO3],Average arterial pressure (mm Hg),[2]; [15],108 ± 8 mm Hg
same,Bronchoconstrictive effect (%),"[5]; guinea pig, in vivo, 10 mg/kg",94%
same,Inotropic positive effect % (n = 5),[9],13%
Zaprinast Nitrate [Zaprinast.HNO3],Gastric toxicity (% incidence),gastric tissue,30 % incidence

# — patent publication US6645965B1, “Nitrate salts of antihypertensive medicines” (priority 1998, dated 2003)
